System: panel of cancer cell lines
Test: Cell viability (CellTiter-Glo) dose-response across cancer cell line panel;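 on EC50: after 72 h compound incubation with CellTiter-Glo ATP readout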
Format: cell-based, human
Conditions: for EC50: Homo sapiens
Text: Next, we explored the effect of CSN5 inhibition on the viability of cancer cells. To obtain a comprehensive picture, we generated dose–response curves with a CSN5 inhibitor across more than 500 cancer cell lines in a previously described standardized setting[47] (Supplementary Data 1).
A standardized CellTiter-Glo Assay (Promega #G7570) based on the quantification of ATP was applied according to the manufacturer's protocol to measure the amount of viable cells in culture. In brief, cells were seeded into 384-well plates at optimal density for each cell line. After 4 h, compounds were added at different concentrations in growth medium and incubated for another 72 h in a humidifying chamber at 37 °C and 5% CO2. […] EC50 values were calculated from the plot of percentage of inhibition versus inhibitor concentration using the nonlinear regression analysis software Origin 7.5SR6 (OriginLab Corp.).

NS(=O)(=O)OC[C@@H]1C[C@@H](n2ccc3c(N[C@H]4CCc5ccccc54)ncnc32)C[C@@H]1O [MLN4924]
AMAX (A4/Fuk): -96.9287
AMAX (A101D): -92.8172
AMAX (A549): -65.6237
AMAX (A-704): -78.0973
AMAX (AM-38): -93.2889
AMAX (AU565): -66.5254
AMAX (AsPC-1): -50.1525
AMAX (BFTC-909): -84.6841
AMAX (BHY): -77.3535
AMAX (BICR 6): -87.6265
AMAX (BICR 16): -96.2639
AMAX (C32): -75.1217
AMAX (COLO 201): -80.4634
AMAX (Caki-1): -69.6053
AMAX (FaDu): -85.8426
AMAX (GP2d): -76.2986
AMAX (HARA): -86.2104
AMAX (HCC1143): -80.6145
AMAX (HCC-15): -95.7573
AMAX (HD-MY-Z): -88.7975
AMAX (HEC-151): -95.1252
AMAX (HEL): -97.9201
AMAX (HLC-1): -88.3206
AMAX (HLF): -88.8149
AMAX (HSC-4): -89.1597
AMAX (Hep3B): -41.8233
EC50 (59M): 631 nM
EC50 (92.1): 213 nM
EC50 (639-V): 191 nM
EC50 697: 373 nM
EC50 (769-P): 199 nM
EC50 (786-0, 786-O): 373 nM
EC50 (1321-N1, 1321N1): 304 nM
EC50 (8505C): 271 nM
EC50 (A4/Fuk): 340 nM
EC50 (A101D): 403 nM
EC50 (A 172, A172): 180 nM
EC50 (A204, A-204): 267 nM
EC50 (A498, A-498): 245 nM
EC50 (A549, A549): 3600 nM
EC50 (A673, A-673): 88.1 nM
EC50 (A704, A-704): 622 nM
EC50 (A2058, A2058): 316 nM
EC50 (A2780, A2780): 330 nM
EC50 (A-375, A-375): 281 nM
EC50 (ACC-MESO-1, ACC-MESO-1): 1560 nM
EC50 (AM-38, AM-38): 297 nM
EC50 (AML-193): 901 nM
EC50 (AN3-CA, AN3 CA): 309 nM
EC50 (AU565, AU565): 505 nM
EC50 (BC-3C): 1970 nM
EC50 (BEN): 1100 nM
EC50 (BFTC-909, BFTC-909): 650 nM
EC50 (BHY): 1870 nM
EC50 (BICR 6): 181 nM
EC50 (BICR 16): 220 nM
EC50 (BICR 18): 11500 nM
EC50 (BICR 31): 156 nM
EC50 (BT-16, BT-16): 98 nM
EC50 (BT-474, BT-474): 871 nM
EC50 (BT-549, BT-549): 382 nM
EC50 (BXPC-3, BxPC-3): 530 nM
EC50 (C3A): > 30000 nM
EC50 (C32, C32): 1140 nM
EC50 (CAKI-1, Caki-1): 327 nM
EC50 (CAKI-2, Caki-2): 2360 nM
EC50 (CAL-12T): 1210 nM
EC50 (CAL-27, CAL 27): 161 nM
EC50 (CAL-29): 283 nM
EC50 (CAL-54, CAL-54): 772 nM
EC50 (CAL-85-1, CAL-85-1): 144 nM
EC50 (CAL-120, CAL-120): 154 nM
EC50 (CAL-148, CAL-148): > 30000 nM
EC50 (CAMA-1, CAMA-1): 94.3 nM
EC50 (CAPAN-1, Capan-1): 301 nM
EC50 (CAS-1): 14000 nM
EC50 (CCRF-HSB-2, CCRF-HSB-2): 296 nM
EC50 (CEM/C1, CEMC1): 257 nM
EC50 (CFPAC-1, CFPAC-1): 703 nM
EC50 (CL-34): 89.6 nM
EC50 (CMK): 138 nM
EC50 (CMK-86, CMK-86): 230 nM
EC50 (COLO 201, COLO 201): 268 nM
EC50 (COLO 205, COLO 205): 268 nM
EC50 (COLO 320, COLO-320): 883 nM
EC50 (COLO 699, COLO-699): 890 nM
EC50 (COLO 704, COLO-704): 384 nM
EC50 (COLO-678, COLO-678): 4890 nM
EC50 (COLO-679, COLO-679): 133 nM
EC50 (COLO-741, COLO 741): 130 nM
EC50 (COLO-829, COLO 829): 319 nM
EC50 (COR-L23, COR-L23): 1660 nM
EC50 (COR-L47, COR-L47): 49.6 nM
EC50 (COR-L105, COR-L105): 469 nM
EC50 (COV362, COV362): 175 nM
EC50 (COV644): 23600 nM
EC50 (CW-2, CW-2): 6310 nM
EC50 (Calu-1, Calu-1): 2340 nM
EC50 (Calu-6, Calu-6): 294 nM
EC50 (ChaGo-K-1, ChaGo-K-1): 778 nM
EC50 (Ci-1, CI-1): 28.2 nM
EC50 (DAN-G): 4140 nM
EC50 (DB): 732 nM
EC50 (DLD-1, DLD-1): 641 nM
EC50 (DMS-53, DMS 53): 22800 nM
EC50 (DMS-153, DMS 153): 42.9 nM
EC50 (DMS-273, DMS 273): 958 nM
EC50 (DND41, DND-41): 513 nM
EC50 (DU-4475, DU4475): 99.4 nM
EC50 (Daoy): 240 nM
EC50 (Detroit 562, Detroit 562): 478 nM
EC50 (EBC-1, EBC-1): 341 nM
EC50 (EFM-19, EFM-19): 1390 nM
EC50 (EOL1, EOL-1): 65.3 nM
EC50 (FaDu): 231 nM
EC50 (G-401, G-401): 1550 nM
EC50 (G-402, G-402): 811 nM
EC50 (GAMG): 373 nM
EC50 (GB-1, GB-1): 479 nM
EC50 (GDM-1, GDM-1): 188 nM
EC50 (GI-1, GI-1): 207 nM
EC50 (GP2d): 759 nM
EC50 (Granta-519, GRANTA-519): 117 nM
EC50 (H4): 229 nM
EC50 (HARA): 640 nM
EC50 (HCC15, HCC-15): 414 nM
EC50 (HCC44, HCC-44): 167 nM
EC50 (HCC70, HCC70): 390 nM
EC50 (HCC78, HCC-78): 183 nM
EC50 (HCC95, HCC-95): 105 nM
EC50 (HCC827, HCC827): 7720 nM
EC50 (HCC1143, HCC1143): 1670 nM
EC50 (HCC1187, HCC1187): 348 nM
EC50 (HCC1500, HCC1500): 6580 nM
EC50 (HCC1588, HCC-1588): 1370 nM
EC50 (HCC1806, HCC1806): 70.1 nM
EC50 (HCC1954, HCC1954): 417 nM
EC50 (HCC4006, HCC4006): 1530 nM
EC50 (HCC-56): 2460 nM
EC50 (HCC-1359): 375 nM
EC50 (HCC-1833): 2350 nM
EC50 (HCT-15, HCT-15): 934 nM
EC50 (HD-MY-Z): 124 nM
EC50 (HEC-50B): 961 nM
EC50 (HEC-151): 225 nM

From publication PMC5078989, “Targeted inhibition of the COP9 signalosome for treatment of cancer” (Nature Communications, 2016)
